Data as given in patent US12460207B2, “Inhibiting APE2 expression in a subject treated with a drug agent that causes increased APE2 expression” (The Cleveland Clinic Foundation, priority 2021, dated 2025).
d = 2'-deoxy (DNA); m = 2'-O-methyl

Experiments:
[1] = system: CreERT2+/−, APE2LSL/− mice; experiment: APE2-ASO treatment of transgenic CreERT2+/−, APE2LSL/− mice (APE2 AKI mouse model); type: in vivo; conditions: for kidney function: treated 4 weeks, once per week
Text: (§1) APE2 conditional transgenic mice were generated by inserting a transcription-translation STOP cassette flanked by LoxP sites (LSL) at the start of the APE2 locus. An FRT-mediated recombination ColA1 3′ untranslated region locus was used first to generate APE2LSL mice. The STOP cassette prevents expression of the APE2 gene. To remove the STOP cassette and activate APE2 expression in vivo, the APE2LSL mice were mated with Rosa26-Cre-Estrogen Receptor-T2 (CreERT2+/−) mice (18; #8463, The Jackson Laboratory), in which the ERT moiety retains Cre recombinase activity in the cytoplasm until tamoxifen administration releases this block and promotes recombination of genomic LoxP sites. Three-week-old APE2LSL/+CreERT2+/− mice and CreERT2+/− mice were injected intraperitoneally with 10 mg/kg 4-OH-tamoxifen for 3 consecutive days. Creatinine and EPO were measured using mouse creatinine (Crystal Chem) and EPO (R&D Systems) ELISA kits. We used heterozygous male (APE2−/Y) mice (12) bearing a mutated APE2 allele on the X chromosome, in which a genomic region from the 3′-region of its intron 5 to the 5′-region in exon 6 was replaced by a neo cassette by crossing heterozygous APE2 female (APE2−/+) mice with wild-type C57BL/6 mice. […] Using this breeding strategy, there is the potential risk and uncertainty of interference with the germline DNA in the male and female APE2 knockout progeny because APE2 has already been knocked out in the male parent (APE2−/Y) and because the function of APE2 is to be responsible for DNA damage repair (13). All mice were of C57B6 genetic background. All experiments involving animals were pre-approved by the Cleveland Clinic IACUC (Institutional Animal Care and Use Committee).
(§2) Mouse kidney biopsy specimens were submerged in 2.5% EM grade glutaraldehyde in 2.5% glutaraldehyde/4% paraformaldehyde in 0.2 mol/L sodium cacodylate buffer (pH 7.4) at 4° C. immediately after sectioning and fixed at 4° C. overnight. After washing three times for 5 minutes in sodium cacodylate buffer (0.2 mol/L, pH 7.3), kidney fragments were fixed in 1% aqueous osmium tetroxide for 60 minutes at 4° C., then washed twice for 5 minutes with sodium cacodylate buffer and rinsed once with maleate buffer (pH 5.1, 5 minutes). After changing to 1% uranyl acetate in maleate buffer, the samples were stained for 60 minutes; the uranyl acetate was removed. The samples were then washed three times for 5 minutes with maleate buffer and then dehydrated with ascending grades of ethanol, and finally embedded in Epon resin (Electron Microscopy Science). […]

APE2 [2] = experiment: PK/PD study in C57B6 mice, APE2 expression by western blot; type: in vivo, mouse
Description: Further optimization of the ASO drug. Potential ASO toxicities fall into two categories: (i) hybridization-dependent toxicities due to on- or off-target events, and (ii) hybridization-independent toxicities, such as excessive immunostimulation due to non-antisense effects of the ASO. We performed the PK/PD study using C57B6 mice. We IP injected six weeks old male mice with 20 mg/kg APE2-ASO and checked the APE2 expression by western blot analysis. We found the APE2 could be knock down in two days and restored in 4 days after injection (FIG. 9).

APE2 [3] = experiment: Western blot of kidney protein expression in platinum drug-treated mice: APE2; type: in vivo, mouse; conditions: for APE2 expression in kidney cells: 40 mg/kg single intraperitoneal dose
Description: (§3) Ten-week-old wild-type C57BL/6J mice weighing 25-28 g were purchased from the Jackson Laboratory. […] An identical volume of saline (0.9% NaCl) was administered intraperitoneally to control mice.
(§4) Total protein samples were isolated with RIPA buffer, fractionated on 4%-12% Bis-Tris polyacrylamide gels (Thermo Fisher Scientific), and electroblotted onto PVDF membranes (Millipore). Membranes were blocked with 5% nonfat milk and incubated overnight with rabbit anti-APE2 polyclonal antibody (Bioss, #bs-6587R), rabbit anti-APE1 polyclonal antibody (Abnova, #H00000328-D02), mouse anti-LIG3 monoclonal antibody (Santa Cruz Biotechnology, #sc-56089), rabbit anti-MRE11 monoclonal antibody (Cell Signaling Technology, #4847), rabbit anti-CtIP polyclonal antibody (Bethyl Laboratories, #300-488A), or goat anti-β-actin polyclonal antibody (Santa Cruz Biotechnology, #sc-1615) overnight at 4° C. Membranes were then washed and incubated with HRP-linked anti-rabbit IgG secondary antibody (Cell Signaling Technology, #7074) or HRP-linked anti-mouse IgG secondary antibody (Cell Signaling Technology, #7076S). […] Detection by chemiluminescence was carried out by means of a SuperSignal West Femto Maximum Sensitivity Substrate kit (Thermo Fisher Scientific) with β-actin as a loading control.

APE1 = experiment: Western blot of kidney protein expression in cisplatin-treated mice: APE1; type: in vivo, mouse; conditions: cisplatin 15 mg/kg, 3 days after treatment
Description: as §3, §4

LIG3 = experiment: Western blot of kidney protein expression in cisplatin-treated mice: LIG3; type: in vivo, mouse; conditions: cisplatin 15 mg/kg, 3 days after treatment
Description: as §3, §4

MRE11 = experiment: Western blot of kidney protein expression in cisplatin-treated mice: MRE11; type: in vivo, mouse; conditions: cisplatin 15 mg/kg, 3 days after treatment
Description: as §3, §4

CTIP = experiment: Western blot of kidney protein expression in cisplatin-treated mice: CTIP; type: in vivo, mouse; conditions: cisplatin 15 mg/kg, 3 days after treatment
Description: as §3, §4

PCNA = experiment: Western blot of kidney protein expression in cisplatin-treated mice: PCNA; type: in vivo, mouse; conditions: cisplatin 15 mg/kg, 3 days after treatment
APE2 [4] = experiment: IHC staining for APE2 in kidney biopsies of C-AKI patients; type: in vivo, human; conditions: two patients with C-AKI versus normal kidney biopsies
Description: Kidney specimens were obtained from healthy donors and from cisplatin-induced AKI patients in accordance with Cleveland Clinic Foundation Institutional Review Board approval requirements, and written informed consent was obtained in compliance with the Helsinki. Formalin-fixed paraffin-embedded tissue sections were de-paraffinized and then incubated with rabbit anti-APE2 polyclonal antibody (Bioss, bs-6587R), rabbit anti-cleaved caspase-3monoclonal antibody (Cell Signaling Technology, #9664S), rabbit anti-MYH9 antibody (GeneTex GTX113236), or rabbit anti-phosphor-histone H2A.X(Ser139) polyclonal antibody (Cell Signaling Technology, #2577) at 4° C. overnight. After incubation with horseradish peroxidase (HRP)-conjugated goat anti-rabbit secondary antibody, signal was detected using a DAB Substrate kit (Abcam, ab64238) according the manufacturer's instructions. Images were obtained by means of a phase-contrast microscope (Leica DM2000 LED) and a digital camera (Leica DMC 2900).

APE2 [5] = experiment: Immunofluorescence of APE2 subcellular localization in HK2 cells after cisplatin; type: cell-based, human; conditions: HK2 cells treated with cisplatin
Description: (§5) HEK293T and HK2 cells were purchased from the ATCC. Mouse anti-Prominin-1 MicroBeads (130-092-333, Miltenyi Biotec) were used to isolate PTCs from APE2LSL/− CreERT2+/− mice, Cre-ERT2+/− mice, C57B6 mice, and APE2 KO mice. The primary PTCs were cultured in DMEM/Nutrient Mixture F-12 (DMEM/F12) containing 10% FBS, 100 U/mL penicillin, and 100 μg/mL streptomycin. HEK293T and HK2 cells were routinely genotyped using the Human Cell Line Genotyping System (Promega) and were used within their 6 times passage. Mouse PTCs were genotyped using the primer for transgenic mice and were used within their 3 times passage. All cell lines were used Mycoplasma tested negative.
(§6) Immunofluorescence staining was performed as described previously (20). The slides of HK2 cells were incubated sequentially with rabbit anti-APE2 antibody (GeneTex), goat anti-rabbit Alexa Fluor 488-conjugated secondary antibody (Abcam), mouse anti-MYH9 antibody (GeneTex), goat anti-mouse Alexa Fluor 647-conjugated secondary antibody (Abcam), and rabbit anti-COXIV antibody Alexa Fluor […]-conjugated antibody (Santa Cruz Biotechnology). […]

APE2 [6] = experiment: Immunofluorescence of APE2 subcellular localization in primary mouse PTCs after cisplatin; type: cell-based; conditions: primary mouse PTCs treated with cisplatin
Description: as §5, §6

[7] = system: wild-type (WT) and APE2 KO mice; conditions: mouse, in vivo, 15 mg/kg
Description: as §3, §1, §2

primary PTCs = experiment: Oxygen consumption (Seahorse Cell Mito Stress) of PTCs from cisplatin-treated mice; type: cell-based, mouse; conditions: PTCs of cisplatin-treated APE2 KO mice versus WT
Description: as §5
The functional activity of PTC mitochondria was measured by using a Seahorse XF24 Analyzer and a Seahorse XF Cell Mito Stress Test Assay (Agilent Technologies). Mitochondrial functionality was examined by direct measurement of the OCR of cells according to the manufacturer's instructions. Briefly, 8×10^4 PTCs were seeded into 24-well plates and allowed to attach overnight. The cells were subjected to OCR detection by sequential injections of oligomycin, carbonyl cyanide p-trifluoromethoxyphenylhydrazone (FCCP), and a combination of rotenone and antimycin A. Basal OCR=measured OCR level before the injection of oligomycin. Adenosine triphosphate (ATP) synthesis-linked OCR (ATP-linked)=basal OCR−OCR following oligomycin injection. […]

[8] = within 24 hours of administration; cited from earlier work
[9] = 20 mg/kg IP, six weeks old male C57B6 mice

## mU*mG*mU*C*C*T*T*A*C*A*G*A*A*mG*mG*mU (UGUCCTTACAGAAGGU; sugars from the 5' end m3 d10 m3, all phosphorothioate, methylation of C not given here) [APE2-ASO-3]
[1]; compared with saline treated controls, P<0.01
  plasma creatine level: significantly reduced
[1]; compared with vehicle treated mice, age of eight weeks
  mitochondrial morphology (EM): remained relatively normal
[1]
  kidney function: protected
[1]; listed as APE2-ASO gapmer drug
  kidney function: protected kidney function
APE2 [2]; [9]
  time to APE2 knock down after injection: two
  time to restored APE2 expression after injection: 4 days
APE2 [2]; wild type C57B6 mice
  APE2 level: knock down

## N.N.O=C([O-])C1(C(=O)[O-])CCC1.[Pt+2] [carboplatin]
APE2 [3]
  APE2 expression in kidney cells: slight upregulation

## O=C1[O][Pt]2([NH][C@@H]3CCCC[C@H]3[NH]2)[O]C1=O [oxaliplatin]
APE2 [3]
  APE2 expression in kidney cells: slight upregulation

## N.N.[Cl][Pt][Cl] [cisplatin]
APE2 [3]; cisplatin 15 mg/kg single intraperitoneal dose, kidney collected 3 days after treatment
  APE2 expression in kidney: the most highly upregulated protein
APE1
  APE1 expression in kidney: slightly upregulated
LIG3
  LIG3 expression in kidney: slightly upregulated
MRE11
  MRE11 expression in kidney: slightly upregulated
CTIP
  CTIP expression in kidney: slightly upregulated
PCNA
  PCNA expression in kidney: downregulated
APE2 [4]
  APE2 protein in PTCs by IHC: dramatically upregulated
APE2 [5]
  APE2 subcellular localization: enriched in the cytoplasm, especially within mitochondria
APE2 [6]
  APE2 subcellular localization: enriched in the cytoplasm, especially within mitochondria
[7]
  kidney damage: only minor kidney damage
  kidney weight: decreased kidney weight
  mitochondrial fragmentation (EM): less mitochondrial fragmentation
  renal damage: most severe
Primary PTCs
  OCR in PTCs: significantly increased
[8]
  cisplatin excreted via the urine: 50%-80%
